{
  "source": "patent US20260337177A1",
  "about": "“TEAD CORE INHIBITORS FOR CANCER THERAPEUTICS” (University of Florida Research Foundation, Incorporated, priority 2023, published 2026)",
  "key": {"Huh7 cells [1]": {"system": "Huh7 cells", "assay": "Apoptosis by Annexin V/PI flow cytometry, Huh7", "format": "cell-based, human", "conditions": "48 h", "method": "In order to gain deeper insights into the underlying anticancer mechanism of compound 22, experiments were performed to validate whether the induction of G1 phase cells by compound 22 was linked to apoptosis. To achieve this, the cells treated with compound 22 were subjected to PI and FITC-annexin V staining to detect apoptotic cells. […] The proportions of total apoptosis including the early stage apoptosis and the later stage of apoptosis were 66.8%, and 83.5%, respectively, at concentrations of 5 and 10 μM. This trend was similarly observed in the case of HepG2 cells. […] The impact of compound 22 on inducing cell apoptosis was less pronounced in HepG2 cells compared to Huh7 cells, aligning with the outcomes of the cell cycle analysis, providing further coherence to the observed effects of compound 22 on these cell lines.\nApoptosis was detected using an Annexin V-FITC apoptosis detection kit (Thermo Fisher Scientific) following the manufacturer’ instructions. Briefly, about 50000 cells were suspended in 500 μl of binding buffer. The cells were incubated with 5 μl FITC-conjugated Annexin V for 15 minutes and incubated with 5 μl propidium Iodide staining solution for 15 minutes in darkness at room temperature. Cell apoptosis was then analyzed by flow cytometry using a FACSCalibur flow cytometer (Becton Dickinson, San Jose, CA)."}, "Huh7 cells [2]": {"system": "Huh7 cells", "assay": "MTT assay, Huh7 viability", "format": "cell-based, human", "conditions": "FIG. 9"}, "CTGF": {"system": "CTGF", "assay": "CTGF mRNA expression by RT-qPCR in HepG2 cells", "format": "cell-based, human", "conditions": "dose-dependent", "method": "Huh7 and HepG2 liver cancer cells were seeded at 1×10^6 cells/dish and allowed to adhere overnight. The cells were then treated with indicated doses of compounds in medium for 24 hours. The cells were then harvested, and total RNA was purified using the Aurum total RNA mini kit (Bio-Rad #732-6820) according to the manufacturer's instructions. Complementary DNA was synthesized from 500 ng total RNA template by iScript reverse transcription kit (Bio-Rad #1725037) according to the manufacturer's instructions. Real-time PCR reactions utilized 60 ng cDNA and PrimePCR primers from Bio-Rad (Unique Assay ID: human GAPDH-qHsaCEP0041396, human CTGF-qHsaCEP0024255, human CYR61-qHsaCEP0024230) designed for SYBR Green gene expression analysis (Bio-Rad #1726270). All reactions were carried out in triplicate using Quant Studio 3 PCR system (Applied Biosystems). Relative gene expression level was quantified via ΔΔCt method by using GAPDH as an endogenous reference."}, "Hs578T cells": {"system": "Hs578T cells", "assay": "Hs578T cell growth inhibition (CCK-8, 3 days)", "format": "cell-based", "conditions": "Homo sapiens, Hs-578T, 72 h, triple negative breast cancer, read-out: Antiproliferative IC50, Hs578T", "method": "The inhibitory effects of compound 22 were assessed against YAP TEAD related NF2-deficient mesothelioma cell NCI-H226 and triple negative breast cancer cell Hs578T. The growth inhibition ratio was measured using a CCK-8 assay after 3 days of treatments."}, "HepG2 cells": {"system": "HepG2 cells", "assay": "Colony formation (clonogenic) assay, HepG2", "format": "cell-based", "conditions": "Homo sapiens, 48 h, read-out: Colony formation, rate of inhibition, HepG2", "method": "The ability of compound 22 to inhibit the proliferation of liver cancer cell lines Huh7 and HepG2 was further assessed using a clonogenic assay.\nHuh7 or HepG2 (500 cells/well) were plated into 6 well plates (500 cells per well) and treated with 0 or 5 μM compound 22. Colonies were grown in the absence of soft agar for 2 weeks in a humidified atmosphere of 5% C02 at 37 ° C Crystal violet blue solution (Sigma) was used to stain the colonies for one hour and fixed in methanol followed by counting under a microscope. Triplicate wells were used for each cell line and three independent experiments were performed."}, "TEAD2-YBD": {"biological_target": "TEAD2-YBD (Homo sapiens, UniProt Q15562)", "sequence (Q15562 217-447)": "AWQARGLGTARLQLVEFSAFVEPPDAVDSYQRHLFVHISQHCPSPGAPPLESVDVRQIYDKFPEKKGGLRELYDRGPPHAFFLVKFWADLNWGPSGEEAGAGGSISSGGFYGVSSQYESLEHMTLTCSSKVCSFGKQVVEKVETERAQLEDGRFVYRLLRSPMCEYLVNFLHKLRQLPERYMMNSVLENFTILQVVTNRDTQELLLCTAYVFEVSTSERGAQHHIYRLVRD", "assay": "Intact protein mass spectrometry, covalent modification of TEAD2-YBD", "format": "binding", "from_the_text": "(§1) To substantiate the covalent interaction between Compound 22 and TEAD2-YBD, intact mass spectrometry was employed to monitor the protein's mass change upon binding with the compound.\n(§2) Human TEAD2-YBD (217-447) (TEAD2_HUMAN, UniProtKB Q15562) was expressed and purified as previously described.^79 To eliminate endogenous palmitoylation, Cys380Ser mutant (TEAD2-C380S) was generated and purified using the same protocol. [00392]hTEAD2 was expressed, purified, and deacylated as reported.^52 Briefly, the yap-binding domain (YBD) of […] was cloned in pET28a vector with the N terminal 6x His tag. The recombinant protein was induced at 16 ° C using 0.2 mM isopropyl bD-1-thiogalactopyranoside (IPTG) for 10 h for overexpression in Escherichia coli strain BL2 (DE3) CodonPlus competent cells (Invitrogen). Then cells were harvested, followed by lysis and the supernatant was loaded onto the HisTrap FF column (GE Healthcare). The hTEAD4-YBD was eluted with elution buffer (50 mM Hepes 8.0, 300 mM NaCl, 10% Glycerol, 1 mM TCEP, 125 mM imidazole). To eliminate the endogenous fatty acid, the protein was incubated with 0.2 mM hydroxylamine for 2 h and further purified through gel filtration chromatography in the final buffer (25 mM Hepes pH 8.0, 100 mM NaCl, 1 mM TCEP, and 5% glycerol). Collected fractions were concentrated to 5 mg/mL and flash frozen for further use. […]"}, "Huh7 cells [3]": {"system": "Huh7 cells", "assay": "Apoptosis by calcein AM and ethidium homodimer-1 staining, Huh7", "format": "cell-based, human"}, "TEAD2-YBD C380S": {"biological_target": "TEAD2-YBD C380S (Homo sapiens, UniProt Q15562, C380S)", "sequence (Q15562 217-447 C380S)": "as the sequence (Q15562 217-447) above, with C164S counted along it", "assay": "Intact protein mass spectrometry, TEAD2-YBD C380S variant", "format": "binding", "conditions": "15 hours", "from_the_text": "as §1, §2"}},
  "data": [
    {"compound": "O=C(CCl)c1c[nH]c2cc(Cl)c(OCc3cccc(C(F)(F)F)c3)cc12", "note": "[Compound 22, 2-chloro-1-(6-chloro-5-((3-(trifluoromethyl)benzyl)oxy)-1H-indol-3-yl)ethan-1-one]", "values": [
      {"measurement": "Proportion of total apoptosis (early + late), Huh7", "setting": "Huh7 cells [1]; 5 μM", "value": 66.8, "unit": "%"},
      {"measurement": "Proportion of total apoptosis (early + late), Huh7", "setting": "Huh7 cells [1]; 10 μM", "value": 83.5, "unit": "%"},
      {"measurement": "Huh7 viability, MTT assay", "setting": "Huh7 cells [2]", "value": "inhibits"},
      {"measurement": "CTGF mRNA expression, HepG2", "setting": "CTGF", "value": "significantly inhibited"},
      {"measurement": "IC50", "setting": "Hs578T cells", "value": 2.6, "unit": "µM"},
      {"measurement": "inhibition at 5 µM", "setting": "HepG2 cells", "value": 59.5, "unit": "%"},
      {"measurement": "Labeling of TEAD2-YBD", "setting": "TEAD2-YBD; 15 hours at room temperature", "value": "completely labeled with a single molecule"},
      {"measurement": "Intact mass shift of TEAD2-YBD", "setting": "TEAD2-YBD; excess compound, covalent complex, room temperature", "value": 365.5581, "unit": "Da"},
      {"measurement": "Huh7 cell apoptosis", "setting": "Huh7 cells [3]", "value": "promotes Huh7 cell apoptosis"},
      {"measurement": "Mass shift of TEAD2-YBD C380S variant", "setting": "TEAD2-YBD C380S", "value": "absence of a mass shift"}
    ]}
  ]
}
